Experimental findings from patent US20240150345A1, “GCN2 MODULATING COMPOUNDS AND USES THEREOF” (HiberCell, Inc., priority 2021, published 2024) are described below.

pIC50: −log10 of the molar value.

In the assay the target is T1, GCN2 (Homo sapiens, UniProt Q9P2K8).
T1 construct: purchased Carma Biosciences (so in the source)
T1 sequence (Q9P2K8 whole entry): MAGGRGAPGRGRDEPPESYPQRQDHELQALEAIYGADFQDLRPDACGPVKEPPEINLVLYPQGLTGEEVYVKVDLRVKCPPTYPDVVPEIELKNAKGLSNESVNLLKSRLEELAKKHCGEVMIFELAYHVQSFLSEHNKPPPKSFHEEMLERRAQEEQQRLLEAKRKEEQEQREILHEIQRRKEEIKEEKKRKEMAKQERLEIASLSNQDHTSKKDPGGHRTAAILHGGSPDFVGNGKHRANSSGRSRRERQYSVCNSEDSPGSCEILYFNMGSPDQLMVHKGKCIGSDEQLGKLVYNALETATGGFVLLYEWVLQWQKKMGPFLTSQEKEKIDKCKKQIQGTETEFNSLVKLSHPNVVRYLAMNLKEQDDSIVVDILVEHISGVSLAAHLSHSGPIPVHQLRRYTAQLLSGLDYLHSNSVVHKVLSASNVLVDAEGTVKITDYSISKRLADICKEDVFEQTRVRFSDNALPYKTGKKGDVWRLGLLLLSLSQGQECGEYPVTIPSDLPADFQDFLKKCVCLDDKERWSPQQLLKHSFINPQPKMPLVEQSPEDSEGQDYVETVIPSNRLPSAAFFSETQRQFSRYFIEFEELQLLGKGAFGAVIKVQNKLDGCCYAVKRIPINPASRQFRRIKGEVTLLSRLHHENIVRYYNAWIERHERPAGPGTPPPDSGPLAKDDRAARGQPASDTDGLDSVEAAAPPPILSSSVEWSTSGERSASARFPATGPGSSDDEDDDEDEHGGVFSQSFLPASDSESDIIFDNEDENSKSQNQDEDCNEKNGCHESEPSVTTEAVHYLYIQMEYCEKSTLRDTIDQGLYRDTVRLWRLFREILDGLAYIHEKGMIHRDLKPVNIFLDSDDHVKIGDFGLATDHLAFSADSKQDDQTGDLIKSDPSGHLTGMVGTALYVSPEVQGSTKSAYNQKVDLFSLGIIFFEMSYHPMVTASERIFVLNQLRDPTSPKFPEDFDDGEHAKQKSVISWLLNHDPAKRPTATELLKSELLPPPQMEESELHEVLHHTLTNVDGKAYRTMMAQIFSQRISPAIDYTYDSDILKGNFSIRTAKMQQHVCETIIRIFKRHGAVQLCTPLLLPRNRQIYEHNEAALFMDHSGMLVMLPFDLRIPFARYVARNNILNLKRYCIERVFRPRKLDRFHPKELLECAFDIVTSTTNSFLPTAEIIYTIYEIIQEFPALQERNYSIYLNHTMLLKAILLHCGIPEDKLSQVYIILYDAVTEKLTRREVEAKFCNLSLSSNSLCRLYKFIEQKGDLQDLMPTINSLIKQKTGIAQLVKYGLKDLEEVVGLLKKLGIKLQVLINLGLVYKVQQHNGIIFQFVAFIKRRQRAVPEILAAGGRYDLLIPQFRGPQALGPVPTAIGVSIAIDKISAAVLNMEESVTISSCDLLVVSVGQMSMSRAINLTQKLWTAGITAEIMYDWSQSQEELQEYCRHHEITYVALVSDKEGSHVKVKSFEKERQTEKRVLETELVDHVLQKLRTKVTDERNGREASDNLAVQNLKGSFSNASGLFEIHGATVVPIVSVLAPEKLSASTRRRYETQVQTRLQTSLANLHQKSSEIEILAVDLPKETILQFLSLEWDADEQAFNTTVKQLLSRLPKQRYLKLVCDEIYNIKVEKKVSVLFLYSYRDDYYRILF
The experiment in a line: TR-FRET biochemical assay for inhibition of GCN2 activity. The note with it: 2 nM GCN2, 100 nM GFP-eIF2α, 150 μM ATP, 1.5 hours at 25° C. The method in brief: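 Compounds (11-point, 3-fold series) were incubated with GCN2 (2 nM final), GFP-eIF2α (100 nM final) and 150 μM ATP with 2 mM DTT for 1.5 h at 25 °C. A 1 nM Tb-anti-P-eIF2α solution was then added for 2 h at 25 °C. TR-FRET was read (ex 340 nm, em 495/520 nm) and fitted with a 4-parameter sigmoidal curve.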
(In general: TR-FRET usually uses a lanthanide donor and a delayed reading to cut background.)
Broadly, the pIC50 is the negative decadic logarithm of the IC50, by convention in mol/L. A lower pIC50 goes with a high IC50. Turning to `CCc1n[nH]c2ncc(OCc3c(F)ccc(NS(=O)(=O)c4cc(C#N)cnc4OC)c3F)cc12` [Compound 41, 5-cyano-N-[3-[([3-ethyl-1H-pyrazolo[3,4-b]pyridin-5-yl]oxy)methyl]-2,4-difluorophenyl]-2-methoxypyridine-3-sulfonamide], the pIC50 is greater than 7.30.

`COc1ncc(F)cc1S(=O)(=O)Nc1ccc(F)c(OCc2cnc3[nH]nc(C)c3c2)c1F` [Compound 45, N-[2,4-difluoro-3-([3-methyl-1H-pyrazolo[3,4-b]pyridin-5-yl]methoxy)phenyl]-5-fluoro-2-methoxypyridine-3-sulfonamide] showed a pIC50 greater than 7.30.

Turning to `COc1ncc(Cl)cc1S(=O)(=O)Nc1ccc(F)c(COc2cnc3[nH]nc(C(C)C)c3c2)c1F` [Compound 53, 5-chloro-N-[2,4-difluoro-3-[([3-isopropyl-1H-pyrazolo[3,4-b]pyridin-5-yl]oxy)methyl]phenyl]-2-methoxypyridine-3-sulfonamide], the pIC50 was greater than 7.30.

For `COc1ncc(F)cc1S(=O)(=O)Nc1ccc(F)c(COc2cnc3[nH]nc(C)c3c2)c1Cl` [Compound 61, N-[2-chloro-4-fluoro-3-[([3-methyl-1H-pyrazolo[3,4-b]pyridin-5-yl]oxy)methyl]phenyl]-5-fluoro-2-methoxypyridine-3-sulfonamide], the pIC50 was greater than 7.30.

Regarding `COc1ncc(Cl)cc1S(=O)(=O)Nc1ccc(F)c(NCc2cnc3[nH]nc(C)c3c2)c1F` [Compound 58, 5-chloro-N-[2,4-difluoro-3-[([3-methyl-1H-pyrazolo[3,4-b]pyridin-5-yl]methyl)amino]phenyl]-2-methoxypyridine-3-sulfonamide], the pIC50 was greater than 7.30.

On to `CNC(=O)c1cc(CCc2c(F)ccc(NS(=O)(=O)c3cc(Cl)cnc3OC)c2F)[nH]n1` [Compound 8, 5-[2-[3-(5-chloro-2-methoxypyridine-3-sulfonamido)-2,6-difluorophenyl]ethyl]-N-methyl-1H-pyrazole-3-carboxamide], for which the pIC50 was greater than 7.30.

`COc1ncc(Cl)cc1S(=O)(=O)Nc1ccc(F)c(CCc2cnc3c(N)nccn23)c1F` [Compound 32, N-[3-(2-[8-aminoimidazo[1,2-a]pyrazin-3-yl]ethyl)-2,4-difluorophenyl]-5-chloro-2-methoxypyridine-3-sulfonamide]: the pIC50 was greater than 7.30.

As to `COc1ncc(F)cc1S(=O)(=O)Nc1ccc(F)c(COc2cnc3[nH]nc(C(F)(F)F)c3c2)c1F` [Compound 44, N-[2,4-difluoro-3-([[3-(trifluoromethyl)-1H-pyrazolo[3,4-b]pyridin-5-yl]oxy]methyl)phenyl]-5-fluoro-2-methoxypyridine-3-sulfonamide], the pIC50 is greater than 7.30.

Consider `CCc1n[nH]c2ncc(OCc3c(F)ccc(NS(=O)(=O)c4cc(Cl)cnc4OC)c3F)cc12` [Compound 40, 5-chloro-N-[3-[([3-ethyl-1H-pyrazolo[3,4-b]pyridin-5-yl]oxy)methyl]-2,4-difluorophenyl]-2-methoxypyridine-3-sulfonamide], for which the pIC50 is greater than 7.30.

`COc1ncc(F)cc1S(=O)(=O)Nc1ccc(F)c(COc2cnc3[nH]nc(C)c3c2Cc2ccccc2)c1F` [Compound 89, N-[3-[([4-benzyl-3-methyl-1H-pyrazolo[3,4-b]pyridin-5-yl]oxy)methyl]-2,4-difluorophenyl]-5-fluoro-2-methoxypyridine-3-sulfonamide] had a pIC50 of less than 6.00.

As to `COc1ncc(Cl)cc1S(=O)(=O)Nc1ccc(F)c(NCc2cnc3[nH]ncc3c2)c1F` [Compound 6, 5-chloro-N-[2,4-difluoro-3-([1H-pyrazolo[3,4-b]pyridin-5-ylmethyl]amino)phenyl]-2-methoxypyridine-3-sulfonamide], the pIC50 is 6.30 to 7.30.

On to `CCn1ncc2ncc(CCc3c(F)ccc(NS(=O)(=O)c4cc(F)cnc4OC)c3F)cc21` [Compound 34, N-[3-(2-[1-ethylpyrazolo[4,3-b]pyridin-6-yl]ethyl)-2,4-difluorophenyl]-5-fluoro-2-methoxypyridine-3-sulfonamide], for which the pIC50 is greater than 7.30.

As to `COc1ncc(Cl)cc1S(=O)(=O)Nc1ccc(F)c(COc2cnc3[nH]ncc3c2C#N)c1F` [Compound 28, 5-chloro-N-[3-[([4-cyano-1H-pyrazolo[3,4-b]pyridin-5-yl]oxy)methyl]-2,4-difluorophenyl]-2-methoxypyridine-3-sulfonamide], the pIC50 is greater than 7.30.

Consider `COc1ncc(Cl)cc1S(=O)(=O)Nc1ccc(F)c(CCc2cnc3cnn(C)c3c2)c1F` [Compound 18, 5-chloro-N-[2,4-difluoro-3-(2-[1-methylpyrazolo[4,3-b]pyridin-6-yl]ethyl)phenyl]-2-methoxypyridine-3-sulfonamide], for which the pIC50 was greater than 7.30.

In the case of `COc1ncc(Cl)cc1S(=O)(=O)Nc1ccc(F)c(C(C)Nc2cnc3[nH]ncc3c2)c1F` (stereo not drawn) [Compound 29, 5-chloro-N-[2,4-difluoro-3-(1-[1H-pyrazolo[3,4-b]pyridin-5-ylamino]ethyl)phenyl]-2-methoxypyridine-3-sulfonamide], the pIC50 is less than 6.00.

`Cc1ncc(F)cc1S(=O)(=O)Nc1ccc(F)c(CCc2cnc3[nH]ncc3c2)c1F` [Compound 9, N-(3-(2-(1H-pyrazolo[3,4-b]pyridin-5-yl)ethyl)-2,4-difluorophenyl)-5-fluoro-2-methylpyridine-3-sulfonamide] showed a pIC50 greater than 7.30.

In turn, `COc1ncc(F)cc1S(=O)(=O)Nc1ccc(F)c(COc2cnc3[nH]nc(C)c3c2)c1F` [Compound 2, N-[2,4-difluoro-3-[([3-methyl-1H-pyrazolo[3,4-b]pyridin-5-yl]oxy)methyl]phenyl]-5-fluoro-2-methoxypyridine-3-sulfonamide] gave a pIC50 greater than 7.30.

For `COc1ncc(F)cc1S(=O)(=O)Nc1ccc(F)c(COc2cnc3cnn(C)c3c2)c1F` [Compound 43, N-[2,4-difluoro-3-[([1-methylpyrazolo[4,3-b]pyridin-6-yl]oxy)methyl]phenyl]-5-fluoro-2-methoxypyridine-3-sulfonamide], the pIC50 is greater than 7.30.

`COc1ncc(Cl)cc1S(=O)(=O)Nc1ccc(F)c(C(C)Oc2cnc3[nH]ncc3c2)c1F` (stereo not drawn) [Compound 25, 5-chloro-N-[2,4-difluoro-3-(1-[1H-pyrazolo[3,4-b]pyridin-5-yloxy]ethyl)phenyl]-2-methoxypyridine-3-sulfonamide] gave a pIC50 of 6.00 to 6.30.

`N#Cc1cc(C(F)(F)F)cc(S(=O)(=O)Nc2ccc(F)c(CCc3cnc4[nH]ncc4c3)c2F)c1` [Compound 16, 3-cyano-N-[2,4-difluoro-3-(2-[1H-pyrazolo[3,4-b]pyridin-5-yl]ethyl)phenyl]-5-(trifluoromethyl)benzenesulfonamide] had a pIC50 of 6.30 to 7.30.

Compound `COc1ncc(Cl)cc1S(=O)(=O)Nc1ncc(F)c(COc2cnc3[nH]nc(C)c3c2)c1F` [Compound 65, 5-chloro-N-[3,5-difluoro-4-[([3-methyl-1H-pyrazolo[3,4-b]pyridin-5-yl]oxy)methyl]pyridin-2-yl]-2-methoxypyridine-3-sulfonamide] had a pIC50 greater than 7.30.

Take `COc1ncc(Cl)cc1S(=O)(=O)Nc1ccc(F)c(COc2cnc3cnn(C)c3c2)c1F` [Compound 42, 5-chloro-N-[2,4-difluoro-3-[([1-methylpyrazolo[4,3-b]pyridin-6-yl]oxy)methyl]phenyl]-2-methoxypyridine-3-sulfonamide]: the pIC50 was greater than 7.30.

Regarding `COc1ncc(F)cc1S(=O)(=O)Nc1ccc(F)c(CCc2cnc3[nH]ncc3c2)c1F` [Compound 15, N-[2,4-difluoro-3-(2-[1H-pyrazolo[3,4-b]pyridin-5-yl]ethyl)phenyl]-5-fluoro-2-methoxypyridine-3-sulfonamide], the pIC50 was greater than 7.30.

For the compound `COc1ncc(F)cc1S(=O)(=O)Nc1ccc(F)c(COc2cnc3[nH]nc(C(C)C)c3c2)c1F` [Compound 52, N-[2,4-difluoro-3-[([3-isopropyl-1H-pyrazolo[3,4-b]pyridin-5-yl]oxy)methyl]phenyl]-5-fluoro-2-methoxypyridine-3-sulfonamide], the pIC50 was greater than 7.30.
